Data: PubChem BioAssay AID1963860 (Molecular Pharmacology Branch, DTP, NCI, 2024)

Test system: CN0375-F725-PDC KRAS spheroid viability
Assay: Anticancer human tumor CN0375-F725-PDC patient-derived colon carcinoma cell line growth inhibition [KRAS2]
Conditions: spheroids with HUVEC and MSC; for IC50: curve of first compound; for viability, T/C: stronger effect = lower value
Outline: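 Combination screen of spheroid viability in tumor-cell co-cultures with endothelial (HUVEC) and mesenchymal stem cell stroma. Each agent was tested in half-log dilutions, topping at clinical Cmax or at 10 microM without a known Cmax.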

[1] = second compound 0.1 µM, first compound 0.0316 µM
[2] = second compound 0.316 µM, first compound 0.0316 µM
[3] = second compound 1 µM, first compound 0.0316 µM
[4] = second compound 3.16 µM, first compound 0.0316 µM
[5] = second compound 10 µM, first compound 0.0316 µM
[6] = second compound 0.1 µM, first compound 0.1 µM
[7] = second compound 0.1 µM, first compound 0.316 µM
[8] = second compound 0.1 µM, first compound 1 µM
[9] = second compound 0.1 µM, first compound 3.16 µM
[10] = second compound 0.1 µM, first compound 10 µM
[11] = second compound 0.316 µM, first compound 0.1 µM
[12] = second compound 0.316 µM, first compound 0.316 µM
[13] = second compound 0.316 µM, first compound 1 µM
[14] = second compound 0.316 µM, first compound 3.16 µM
[15] = second compound 0.316 µM, first compound 10 µM
[16] = second compound 1 µM, first compound 0.1 µM
[17] = second compound 1 µM, first compound 0.316 µM
[18] = second compound 1 µM, first compound 1 µM
[19] = second compound 1 µM, first compound 3.16 µM
[20] = second compound 1 µM, first compound 10 µM
[21] = second compound 3.16 µM, first compound 0.1 µM
[22] = second compound 3.16 µM, first compound 0.316 µM
[23] = second compound 3.16 µM, first compound 1 µM
[24] = second compound 3.16 µM, first compound 3.16 µM
[25] = second compound 3.16 µM, first compound 10 µM
[26] = second compound 10 µM, first compound 0.1 µM
[27] = second compound 10 µM, first compound 0.316 µM
[28] = second compound 10 µM, first compound 1 µM
[29] = second compound 10 µM, first compound 3.16 µM
[30] = second compound 10 µM, first compound 10 µM
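Also: spheroids exposed to agents for 7 days.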

Work on `CC(=O)Nc1cccc(-n2c(=O)n(C3CC3)c(=O)c3c(Nc4ccc(I)cc4F)n(C)c(=O)c(C)c32)c1` + CC1OCC2(CCN(c3cnc(Sc4ccnc(N)c4Cl)c(N)n3)CC2)C1N yielded an IC50 (second compound 0.1 µM) of 0.00459 µM, an IC50 (second compound 0.316 µM) of 0.00209 µM and an IC50 (second compound 1 µM) of 0.00161 µM. For the same compound, the IC50 (second compound 3.16 µM) was 0.000826 µM, the IC50 (second compound 10 µM) was 0.000257 µM and the viability, T/C (second compound 0.1 µM, first compound 0.0001 µM) was 90.5%. For the same compound, the viability, T/C (second compound 0.1 µM, first compound 0.000316 µM) was 79.2%, the viability, T/C (second compound 0.1 µM, first compound 0.001 µM) was 64% and the viability, T/C (second compound 0.1 µM, first compound 0.00316 µM) was 54.7%. The viability, T/C (second compound 0.1 µM, first compound 0.01 µM) was 42.8%, the viability, T/C [1] was 30.5% and the viability, T/C (second compound 0.316 µM, first compound 0.0001 µM) was 84.5%. The viability, T/C (second compound 0.316 µM, first compound 0.000316 µM) was 75.8%, the viability, T/C (second compound 0.316 µM, first compound 0.001 µM) was 57.5% and the viability, T/C (second compound 0.316 µM, first compound 0.00316 µM) was 44.9%. For the same compound, the viability, T/C (second compound 0.316 µM, first compound 0.01 µM) was 39.2%, the viability, T/C [2] was 32.5% and the viability, T/C (second compound 1 µM, first compound 0.0001 µM) was 78.4%. It also gave a viability, T/C (second compound 1 µM, first compound 0.000316 µM) of 66.8%, a viability, T/C (second compound 1 µM, first compound 0.001 µM) of 55.1% and a viability, T/C (second compound 1 µM, first compound 0.00316 µM) of 42.5%. It also gave a viability, T/C (second compound 1 µM, first compound 0.01 µM) of 35%, a viability, T/C [3] of 27.4% and a viability, T/C (second compound 3.16 µM, first compound 0.0001 µM) of 66.5%. It also gave a viability, T/C (second compound 3.16 µM, first compound 0.000316 µM) of 65.8%, a viability, T/C (second compound 3.16 µM, first compound 0.001 µM) of 45.2% and a viability, T/C (second compound 3.16 µM, first compound 0.00316 µM) of 36.2%. The viability, T/C (second compound 3.16 µM, first compound 0.01 µM) was 31.4%, the viability, T/C [4] was 27.2% and the viability, T/C (second compound 10 µM, first compound 0.0001 µM) was 63.1%. For the same compound, the viability, T/C (second compound 10 µM, first compound 0.000316 µM) was 46.4%, the viability, T/C (second compound 10 µM, first compound 0.001 µM) was 37.6% and the viability, T/C (second compound 10 µM, first compound 0.00316 µM) was 30%. The viability, T/C (second compound 10 µM, first compound 0.01 µM) was 23.5% and the viability, T/C [5] was 24.6%.
With `COc1cc(Nc2ncc3c(n2)-c2ccc(Cl)cc2C(c2c(F)cccc2OC)=NC3)ccc1C(=O)O` + CC1OCC2(CCN(c3cnc(Sc4ccnc(N)c4Cl)c(N)n3)CC2)C1N the IC50 (second compound 0.1 µM) was > 10 µM, the IC50 (second compound 0.316 µM) was > 10 µM and the IC50 (second compound 1 µM) was > 10 µM. For the same compound, the IC50 (second compound 3.16 µM) was > 10 µM, the IC50 (second compound 10 µM) was > 10 µM and the viability, T/C [1] was 91.5%. It also gave a viability, T/C [6] of 90.4%, a viability, T/C [7] of 85.8% and a viability, T/C [8] of 80.5%. The viability, T/C [9] was 84.6%, the viability, T/C [10] was 70% and the viability, T/C [2] was 88.8%. The viability, T/C [11] was 86.5%, the viability, T/C [12] was 85.6% and the viability, T/C [13] was 82.1%. For the same compound, the viability, T/C [14] was 82.7%, the viability, T/C [15] was 72.5% and the viability, T/C [3] was 79.9%. The viability, T/C [16] was 81.9%, the viability, T/C [17] was 82.2% and the viability, T/C [18] was 75.9%. For the same compound, the viability, T/C [19] was 74.7%, the viability, T/C [20] was 64.7% and the viability, T/C [4] was 81%. The viability, T/C [21] was 74.6%, the viability, T/C [22] was 70.3% and the viability, T/C [23] was 70.6%. The viability, T/C [24] was 67.9%, the viability, T/C [25] was 62.8% and the viability, T/C [5] was 66.7%. The viability, T/C [26] was 71.4%, the viability, T/C [27] was 67.2% and the viability, T/C [28] was 62.6%. For the same compound, the viability, T/C [29] was 61.6% and the viability, T/C [30] was 53.6%.
`COc1cc2nccc(Oc3ccc(NC(=O)C4(C(=O)Nc5ccc(F)cc5)CC4)cc3)c2cc1OC` + CC1OCC2(CCN(c3cnc(Sc4ccnc(N)c4Cl)c(N)n3)CC2)C1N was tested, and the IC50 (second compound 0.1 µM) was > 10 µM, the IC50 (second compound 0.316 µM) was 5.81 µM and the IC50 (second compound 1 µM) was 2.58 µM. The IC50 (second compound 3.16 µM) was 1.88 µM, the IC50 (second compound 10 µM) was 0.644 µM and the viability, T/C [1] was 104%. For the same compound, the viability, T/C [6] was 94.5%, the viability, T/C [7] was 83.3% and the viability, T/C [8] was 69.3%. For the same compound, the viability, T/C [9] was 56.3%, the viability, T/C [10] was 63.2% and the viability, T/C [2] was 99.5%. For the same compound, the viability, T/C [11] was 94.6%, the viability, T/C [12] was 85.9% and the viability, T/C [13] was 68.4%. For the same compound, the viability, T/C [14] was 44.6%, the viability, T/C [15] was 53.5% and the viability, T/C [3] was 86.3%. The viability, T/C [16] was 84.7%, the viability, T/C [17] was 75.5% and the viability, T/C [18] was 67.9%. For the same compound, the viability, T/C [19] was 38.4%, the viability, T/C [20] was 53.9% and the viability, T/C [4] was 84.4%. The viability, T/C [21] was 78.9%, the viability, T/C [22] was 71.7% and the viability, T/C [23] was 60.7%. It also gave a viability, T/C [24] of 36.7%, a viability, T/C [25] of 46.8% and a viability, T/C [5] of 66.9%. For the same compound, the viability, T/C [26] was 69.3%, the viability, T/C [27] was 57.9% and the viability, T/C [28] was 46.2%. The viability, T/C [29] was 25.9% and the viability, T/C [30] was 31.2%.
